From US9808434B2, “Compound for treating cancer and diabetes” (CITY OF HOPE, priority 2011, dated 2017)

Columns and labels:
B16-F0 melanoma = format: in vivo
Procedure: For melanoma studies, C57B mice (for syngeneic B16-F0 mouse melanoma model) and Hsd: Athymic nude nu/nu mice (for A2058 human melanoma mouse xenografts model), were obtained from Harlan, Indianapolis, Ind. All animal experiments were carried out in accordance with a protocol approved by the Institutional Animal Care and Use Committee (IACUC). In each model, ten 10-weeks-old mice were divided into two groups of 5 animals (treated with corn oil (vehicle), and COH-SR4 compound 4 mg/kg b.w.). All animals were injected with 2×10^6 melanoma cells suspensions in 100 μL of PBS, subcutaneously into one flank of each mouse. Treatment was started 10 days after the implantation to see palpable tumor growth. Treatment consisted of 0.1 mg of COH-SR4/mice in 200 μL corn oil by oral gavage alternate day. Control groups were treated with 200 μL corn oil by oral gavage alternate days. Animals were examined daily for signs of tumor growth. Tumors were measured in two dimensions using calipers. Photographs of animals were taken at day 1, day 10, day 14, day 18, day 20, day 30, and day 51 after subcutaneous injection, are shown for all groups. Photographs of tumors were also taken at day 20 (for syngeneic model), and at day 51 (for xenograft model).
C57B mice for syngeneic model were obtained from Harlan, Indianapolis, Ind. All animal experiments were carried out in accordance with a protocol approved by the Institutional Animal Care and Use Committee (IACUC). Ten 10-weeks-old mice were divided into two groups of 5 animals (treated with corn oil (vehicle), and COH-SR4 4 mg/kg body weight). All 10 animals were injected with 1×10^6 mouse melanoma cells (B16-F0) suspensions in 100 μL of PBS, subcutaneously into one flank of each mouse. Treatment was started 10 days after the B16 melanoma cells implantation to see palpable tumor growth. Treatment consisted of 0.1 mg of COH-SR4/mice in 200 μL corn oil by oral gavage alternate day. Control groups were treated with 200 μL corn oil by oral gavage alternate day. Animals were examined daily for signs of tumor growth, and body weights were recorded. Tumors were measured in two dimensions using calipers. Photographs of animals were taken at day 1, day 10, day 14, day 18, and day 20 after subcutaneous injection, are shown for all groups. Photographs of tumors were also taken at day 20.
C57B mice (for syngeneic B16-F0 mouse melanoma model) and Hsd: Athymic nude nu/nu mice (for A2058 human melanoma mouse xenografts model), were used for testing the impact of oral administration of COH-SR4 on melanoma progression in vivo models. In each model, ten 10-weeks-old mice were divided into two groups of 5 animals (treated with corn oil (vehicle), and COH-SR4 compound (4 mg/kg b.w.). All animals were injected with 2×10^6 melanoma cells suspensions in 100 μL of PBS, subcutaneously into one flank of each mouse. Treatment was started 10 days after the implantation of melanoma cells. Treatment consisted of 0.1 mg of COH-SR4/mice in 200 μL corn oil by oral gavage on alternate days. Control groups were treated with 200 μL corn oil by oral gavage alternate day. Animals were examined daily for signs of tumor growth and body weights were recorded. […] Animals were examined daily for signs of tumor growth. Tumors were measured in two dimensions using calipers. […] Tumors were measured in two dimensions using calipers and time-course analysis of tumor regression was performed during the study. […]

SK-Mel-31 = assay: Colony formation assay, SK-Mel-31; format: cell-based, human; conditions: 5 μM
Procedure: Cell survival was evaluated using a standard colony-forming assay. In total, 1×10^5 cells/mL were incubated with COH-SR4 (1.5 μM or 5 μM) or elesclomol (5 μM) for 24 h, and aliquots of 50 or 100 μL were added to 60 mm size petri dishes, containing 4 mL culture medium. After 7 or 10 days, adherent colonies were fixed, stained with 0.5% methylene blue for 30 min and colonies were counted using the Innotech Alpha Imager HP (91).

H1417 cells = assay: MTT assay, H1417; format: cell-based; conditions: Homo sapiens, NCI-H1417, 48 h
Procedure: Cell density measurements were performed using a hemocytometer to count reproductive cells resistant to staining with trypan blue. Approximately 20,000 cells were plated into each well of 96-well flat-bottomed micro-titer plates. After 12 h or 24 h incubation at 37° C., medium containing either COH-SR4 (ranging 0-200 μM) or elesclomol (ranging 0-20 μM) were added to the cells. After 24 h, 48 h or 96 h incubation, 20 μL of 5 mg/mL MTT were introduced to each well and incubated for 2 h. The plates were centrifuged and medium was decanted. Cells were subsequently dissolved in 100 μl DMSO with gentle shaking for 2 h at room temperature, followed by measurement of OD570 (91).
The effect of COH-SR4 was first examined in a NCI panel of cancer cell lines, the results of which indicated good activity of COH-SR4 towards lung cancer (FIG. 78A). […] Values are presented as mean±SD from two separate determinations with eight replicates each (n=16) (FIG. 78B). […] Standard colony-forming assay was performed and the colonies were counted using Innotech Alpha Imager HP. […] TUNEL assay was performed using Promega fluorescence detection kit and examined using Zeiss LSM 510 META laser-scanning fluorescence microscope with filters 520 and 620 nm. […]

With `O=C(Nc1cc(Cl)cc(Cl)c1)Nc1cc(Cl)cc(Cl)c1` [COH-SR4, 1,3-bis(3,5-dichlorophenyl) urea] the “tumor cross-section areas compared to corn oil” value (B16-F0 melanoma; Example 16, 4 mg/kg oral gavage alternate day) was “significantly smaller”, the day of death (B16-F0 melanoma; Example 16, 4 mg/kg, corn oil only died on day 20) was 48 days and the “tumor weights compared to corn oil” value (B16-F0 melanoma; Example 16, day 20) was “significantly smaller”. It also gave a tumor weight (B16-F0 melanoma; Example 22, day 20, control 2.36±0.2 g) of 1.07 ± 0.2 g, a survival (B16-F0 melanoma; Example 22, vehicle censored by day 20±2) of 50 ± 5 days and a colony formation (SK-Mel-31) of 40±4%. It also gave an IC50 (H1417 cells) of 1200 ± 200 nM.
